According to patent US20100124537A1 (priority 2007, published 2010):
Entries after “also recorded” stand apart in the source; their conditions may differ. Read-outs that look alike come from different tables or passages of the source.

Columns and labels:
lactic acid bacteria = assay: Lactic acid bacteria isolated from scraped stomach mucosa (antral part); format: in vivo; details: animals tested, including mice infected with H. pylori and then inoculated with alpha-ketoglutarate
H. pylori infection = assay: Volunteers with confirmed H. pylori infection taking the calcium salt with a milk drink (Example 4); format: in vivo, human; details: after two-week treatment
gastrin = details: infected with H. pylori then alpha-ketoglutarate, versus control group (PBS); p<0.01
[1] = Morphology of stomach and small intestine mucosa in mice given alpha-ketoglutarate; format: in vivo; details: mice infected with H. pylori and following inoculation with alpha-ketoglutarate
H. pylori, strain 119/95 [2] = system: H. pylori, strain 119/95
Protocol: Laboratory experimental animals: twenty eight 6 week-old BALB/cA (female) mice weighing 25±2 g (FIG. 1). […] Two weeks after the last challenge, seven mice were inoculated intragastrically for nine successive days by the same method with a solution of calcium or sodium salt of alpha-ketoglutaric acid (0.2 ml, at concentration 30 mM) (group I A). The remaining seven mice were sham-treated with 0.01 M phosphorate buffer—PBS (group I B) as animals from group I A.
Further fourteen mice from group II A and II B were treated with 0.2 ml PBS according to the scheme operating by the infection of the animals with H. pylori. Two weeks after the above treatment seven mice were continuously inoculated with PBS (0.2 ml) for three consecutive days. The remaining seven mice were treated with a solution of salts of alpha-ketoglutaric acid (0.2 ml, concentration 30 mM) (group II A).
On the 30th day of the experiment all mice were sacrificed using CO2. For further analyses blood and stomach samples from mice infected with H. pylori with or without the following inoculation with salts of alpha-ketoglutaric acid were collected. In this experiment the relationship between colonisation level of mouse stomach mucosa (n=28) by H. pylori and the mice treated intragastrically with salts of alpha-ketoglutaric acid were studied in accordance with the time regime as described above.
37° C., under microaerophilic conditions for 7-10 days. From the half of the antrum gastric mucosa was scraped off and mixed with 500 μl PBS sterilized. After homogenate balancing it was noticed that the amount of the scraped mucosa from the half of the antrum was generally between 40 μg a 50 μg. For calculation of number of H. pylori cells, a 100 μl of gastric mucosa homogenate was smeared onto GAB-CAMP agar plates and incubated at temp. 37° C., for 5-10 days, under microaerophilic conditions. Homogenized mucosa samples from each mouse were examined in triplicate. The results are presented as the mean value±SD. The presence of H. pylori was identified by colony morphology and urease-, oxidase- and catalase tests, as well as by morphological examination of cells by Gram-staining.

[3] = system: bacteria from Helicobacter genus (16S rDNA); assay: 16S rDNA PCR, DGGE and sequencing of stomach mucosa homogenates (Example 2); format: in vivo, BALB/cA mice; details: for H. pylori DNA / sequences specific for H. pylori in PCR products: infected mice treated with alpha-ketoglutarate (Group III B), ethidium bromide staining
Protocol: (§1) DNA was also isolated to perform PCR with primers (5′-[…]-3′ and 5′-[…]-3′) recognizing 16S rDNA fragment in DNA of bacteria from Helicobacter genus. Afterwards PCR products in size 470 by were separated according to denaturating gradient gel electrophoresis technique (DGGE) and sequenced. […] Electrophoresis run at a temp of 60° C. in 125 V during 16 h.

H. pylori, strain 119/95 [4] = assay: Mice infectious model with H. pylori, three intragastric doses of alpha-ketoglutaric acid salts, culture on GAB-CAMP agar (Example 2); format: in vivo, BALB/cA mice; details: for H. pylori colonies cultured from gastric mucosa: infected mice treated 3 consecutive days, 8 days after infection (Group III B); for effect on colonisation of gastric mucosa by H. pylori: three intragastric administrations on 3 consecutive days, started 8 days after last infective dose
Protocol: Eight days after the last challenge, sixteen mice were inoculated intragastrically through the tube for three successive days with 0.2 ml of 30 mM solution of salts of alpha-ketoglutaric acid (group III B). The remaining eight mice were sham-treated with 0.2 ml of 0.01 M PBS (group III) according to the procedure with group III.
Eight days after above treatment sixteen mice were inoculated with the tube for three consecutive days with salts of […] (0.2 ml, concentration 30 mM) (group IV B). The remaining eight mice were treated with 0.2 ml 0.01 M PBS (group IV).
Stomach and blood were samples were collected for the further studies.
as §1

[5] = 2-3 years old rats with low initial blood AKG (below 0.1 ug/ml), feed additive; controls did not survive; cited from earlier work
[6] = PBS + AKG (Group II A), non-infected mice
[7] = PBS + AKG (Group IV B), non-infected mice
[8] = listed as salts of alpha-ketoglutaric acid

For O=C(O)CCC(=O)C(=O)O [AKG, alpha-ketoglutarate], the “differences in number of CCK-producing cells in the small intestine” value (cholecystokinin (CCK); H. pylori + alpha-ketoglutarate versus alpha-ketoglutarate only, p=0.25) was “no significant differences”, the “decrease in number of CCK producing cells in the small intestine” value (cholecystokinin (CCK); animals treated with alpha-ketoglutarate versus non-infected mice given only PBS, tendency, p=0.1) was 30% and the “changes in the amount of lactic acid bacteria isolated from scraped stomach mucosa (antral part)” value (lactic acid bacteria) was “no changes”. For the same compound, the “time for which lack of dyspepsia symptoms was maintained after end of administration” value (H. pylori infection) was “one”, the “reduction in the number of gastrin-producing cells in the pyloric region of the stomach glands” value (gastrin) was 17% and the “morphological changes in thickening of mucosa in stomach and small intestine, villus width and crypt depth” value [1] was “no morphological changes”. For the same compound, the “H. pylori cultivated: Number of mice infected/in group” value (H. pylori, strain 119/95 [2]; H. pylori + AKG (Group I A), 0.2 ml 30 mM intragastrically for 9 days starting 2 weeks after last challenge, day 30) was 7/7, the “H. pylori cultivated: Number of bacteria (cfu)/mouse” value (from here on “H. pylori cultivated … (cfu)/mouse”) (H. pylori, strain 119/95 [2]; H. pylori + AKG (Group I A), mean ± SD, H. pylori + PBS gave 7.8 × 10^2 ± 5.0 × 10^1) was 3.8 × 10^2 ± 5.0 × 10^1 cfu/mouse and the “H. pylori cultivated … (cfu)/mouse” value (H. pylori, strain 119/95 [2]; [6]) was 0 cfu/mouse. The “H. pylori cultivated: Number of mice infected/in group” value (H. pylori, strain 119/95 [2]; [6]) was 0/7, the “number of colonies (mean±SD) isolated from antral/pyloric part of gastric mucosa” value (H. pylori, strain 119/95 [2]; infected mice treated 9 days (Group I A), infected only 7.8×10^2±5.0×10^1) was 3.8×10^2±5.0×10^1 and the “reduction of degree of gastric mucosa colonisation by H. pylori” value (H. pylori, strain 119/95 [2]; nine intragastric administrations on 9 consecutive days, started 14 days after last infective dose, versus mice infected only) was 49%. For the same compound, the “16S rDNA PCR - Helicobacter genus: Number of mice with H. pylori DNA/in group” value ([3]; H. pylori + AKG (Group III B)) was 0/16, the “16S rDNA PCR - Helicobacter genus: Number of mice with H. pylori DNA/in group” value [3, 7] was 0/16 and the “H. pylori DNA / sequences specific for H. pylori in PCR products” value [3] was “no H. pylori DNA was found”. The “H. pylori DNA / sequences specific for H. pylori in PCR products” value [3, 8] was “not found”, the “H. pylori cultivated: Number of mice infected/in group” value (H. pylori, strain 119/95 [4]; H. pylori + AKG (Group III B), 0.2 ml 30 mM intragastrically for 3 days starting 8 days after last challenge, day 20) was 0/16 and the “H. pylori cultivated … (cfu)/mouse” value (H. pylori, strain 119/95 [4]; H. pylori + AKG (Group III B), H. pylori + PBS gave 4.3 × 10^2 ± 5.0 × 10^1) was 0 cfu/mouse. For the same compound, the “H. pylori cultivated … (cfu)/mouse” value (H. pylori, strain 119/95 [4]; [7]) was 0 cfu/mouse, the “H. pylori cultivated: Number of mice infected/in group” value (H. pylori, strain 119/95 [4]; [7]) was 0/16 and the “H. pylori colonies cultured from gastric mucosa” value (H. pylori, strain 119/95 [4]) was “no H. pylori colonies were found”. For the same compound, the “H. pylori colonies cultured from gastric mucosa” value (H. pylori, strain 119/95 [4]; [8]) was “not found; also recorded: no H. pylori colony was cultured”, the “effect on colonisation of gastric mucosa by H. pylori” value (H. pylori, strain 119/95 [4]) was “completely stopped colonisation and fully eradicated H. pylori” and the “effect on colonisation of gastric mucosa by H. pylori” value (H. pylori, strain 119/95 [4]; [8]) was “total inhibitory effect on bacterial colonisation and fully eradication of H. pylori bacteria from gastric mucosa”.

For O.O.O=C([O-])CCC(=O)C(=O)[O-].[Na+].[Na+] [Na2AKG*2H2O], the “survival of the experiment” value [5] is given as “survived the experiment”.
